# Test results as given in patent US20100004267A1, “LIQUID PREPARATION” (ASUBIO PHARMA CO., LTD., priority 2006, published 2010).
# How the values were obtained:
# [1] = Reduction in surface activity in SUN N8075 aqueous solution (Test example 7); type: physicochemical; parameters: key to Appearance after shaking / Appearance after standing: A: Clear; B+: Almost clear; B: Much less insoluble matters than Control; Clearly less insoluble matter than Control; D: Comparable amount of insoluble matters with Control; E: More insoluble matters than Control; key to General judgment: A: Great effect; B+: Large effect; B: Effective; C: Effective but very small; D: Comparable to Control (No effect); E: Inferior to Control (clouded); key to Foaming property: A: Much less foaming than Control; B: Clearly less foaming than Control; Slightly less foaming than Control; D: Comparable to Control; E: More foaming than Control
# Procedure: (§1) Into each test compound solution which was prepared in advance to achieve each adding concentration shown in the Table, SUN N8075 was added and dissolved so that the concentration thereof was 5 mg/mL, and the pH value was adjusted to 3 to 4 as appropriate by hydrochloric acid to prepare a sample solution.
# (§2) Each 10 mL of sample solution was put into a 10-mL stoppered test tube, and shaken 30 strokes vertically by hand and allowed to stand upright, and under room diffused light, appearance of sample solution after shaking, foaming property (foaming quantity), defoaming time, post standing observation (after standing for 3 days or more) were evaluated.
# (§3) As a control, an aqueous solution containing no test substance but containing 5 mg/mL of SUN N8075 was examined in a similar manner.
# [2] = as above; type: physicochemical; parameters: key: A: In 20 minutes; B: In 60 minutes; C: 60 minutes to 3 days; D: Comparable to Control
# Procedure: as §1, §2, §3
# [3] = Control: 5 mg/mL SUN N8075 aqueous solution, no test substance
smiles,measurement,setting,value
"Cc1cc(OC[C@@H](O)CN2CCN(c3ccc(Cc4ccc(F)cc4)cc3)CC2)c(C)c(C)c1N [SUN N8075, (2S)-1-(4-amino-2,3,5-trimethylphenoxy)-3-{4-[4-(4-fluorobenzyl)phenyl]-1-piperazinyl}-2-propanol dimethane sulfonate]",Appearance after shaking,[1]; Captisol 10.00%,A
same,Appearance after standing,[1]; Captisol 10.00%,A
same,Defoaming time,[1]; Captisol 10.00%,A (In 20 minutes)
same,Foaming property,[1]; Captisol 10.00%,A
same,General judgment,[1]; Captisol 10.00%,A
same,Appearance after shaking,[1]; Chlorobutanol 0.10%,D
same,Appearance after standing,[1]; Chlorobutanol 0.10%,D
same,Foaming property,[1]; Chlorobutanol 0.10%,C
same,General judgment,[1]; Chlorobutanol 0.10%,D
same,Appearance after shaking,[1]; Chlorobutanol 0.50%,B
same,Appearance after standing,[1]; Chlorobutanol 0.50%,A
same,Foaming property,[1]; Chlorobutanol 0.50%,B
same,General judgment,[1]; Chlorobutanol 0.50%,B+
same,Appearance after shaking,[1]; Chlorobutanol […],C
same,Appearance after standing,[1]; Chlorobutanol […],A
same,Foaming property,[1]; Chlorobutanol […],C
same,General judgment,[1]; Chlorobutanol […],B
same,Appearance after shaking/Appearance after standing,[1]; [3],Large amount of insoluble matters in wall face and appearance in Control
same,Foaming property,[1]; [3],Very high foaming property in Control
same,Defoaming time,"[1]; Control: 5 mg/mL SUN N8075 aqueous solution, no test substance, standing",Not defoamed after standing for 1 week in Control
same,Appearance after shaking,[1]; Ethanol 1.00%,B
same,Appearance after standing,[1]; Ethanol 1.00%,B
same,Foaming property,[1]; Ethanol 1.00%,C
same,General judgment,[1]; Ethanol 1.00%,B
same,Appearance after shaking,[1]; Ethanol 5.00%,D
same,Appearance after standing,[1]; Ethanol 5.00%,E
same,Foaming property,[1]; Ethanol 5.00%,D
same,General judgment,[1]; Ethanol 5.00%,D
same,Appearance after shaking,[1]; Ethanol 10.00%,D
same,Appearance after standing,[1]; Ethanol 10.00%,E
same,Foaming property,[1]; Ethanol 10.00%,D
same,General judgment,[1]; Ethanol 10.00%,D
same,Appearance after shaking,[1]; Ethanol […],B
same,Appearance after standing,[1]; Ethanol […],C
same,Foaming property,[1]; Ethanol […],D
same,General judgment,[1]; Ethanol […],C
same,Appearance after shaking,[1]; Glycine 100 mM,B
same,Appearance after standing,[1]; Glycine 100 mM,B
same,Foaming property,[1]; Glycine 100 mM,B
same,General judgment,[1]; Glycine 100 mM,B
same,Appearance after shaking,[1]; L-Arginine 30 mM,B+
same,Appearance after standing,[1]; L-Arginine 30 mM,B+
same,Defoaming time,[1]; L-Arginine 30 mM,B (In 60 minutes)
same,Foaming property,[1]; L-Arginine 30 mM,B
same,General judgment,[1]; L-Arginine 30 mM,B+
same,Appearance after shaking,[1]; L-Arginine 60 mM,A
same,Appearance after standing,[1]; L-Arginine 60 mM,A
same,Defoaming time,[1]; L-Arginine 60 mM,A (In 20 minutes)
same,Foaming property,[1]; L-Arginine 60 mM,A
same,General judgment,[1]; L-Arginine 60 mM,A
same,Appearance after shaking,[1]; L-Histidine 60 mM,A
same,Appearance after standing,[1]; L-Histidine 60 mM,A
same,Defoaming time,[1]; L-Histidine 60 mM,A (In 20 minutes)
same,Foaming property,[1]; L-Histidine 60 mM,A
same,General judgment,[1]; L-Histidine 60 mM,A
same,Appearance after shaking,[1]; Meglumine 25 mM,C
same,Appearance after standing,[1]; Meglumine 25 mM,C
same,Foaming property,[1]; Meglumine 25 mM,D
same,General judgment,[1]; Meglumine 25 mM,C
same,Appearance after shaking,[1]; Meglumine 50 mM,A
same,Appearance after standing,[1]; Meglumine 50 mM,A
same,Defoaming time,[1]; Meglumine 50 mM,B (In 60 minutes)
same,Foaming property,[1]; Meglumine 50 mM,C
same,General judgment,[1]; Meglumine 50 mM,B
same,Appearance after shaking,[1]; Meglumine 75 mM,A
same,Appearance after standing,[1]; Meglumine 75 mM,A
same,Defoaming time,[1]; Meglumine 75 mM,B (In 60 minutes)
same,Foaming property,[1]; Meglumine 75 mM,B
same,General judgment,[1]; Meglumine 75 mM,A
same,Appearance after shaking,[1]; Meglumine 100 mM,A
same,Appearance after standing,[1]; Meglumine 100 mM,A
same,Defoaming time,[1]; Meglumine 100 mM,A (In 20 minutes)
same,Foaming property,[1]; Meglumine 100 mM,C
same,General judgment,[1]; Meglumine 100 mM,A
same,Appearance after shaking,[1]; Methane sulfonic acid 15 mM,D
same,Appearance after standing,[1]; Methane sulfonic acid 15 mM,D
same,Foaming property,[1]; Methane sulfonic acid 15 mM,B
same,General judgment,[1]; Methane sulfonic acid 15 mM,D
same,Appearance after shaking,[1]; Propylene glycol 1.00%,B
same,Appearance after standing,[1]; Propylene glycol 1.00%,A
same,Foaming property,[1]; Propylene glycol 1.00%,B
same,General judgment,[1]; Propylene glycol 1.00%,B+
same,Appearance after shaking,[1]; Propylene glycol 5.00%,B
same,Appearance after standing,[1]; Propylene glycol 5.00%,D
same,Foaming property,[1]; Propylene glycol 5.00%,D
same,General judgment,[1]; Propylene glycol 5.00%,D
same,Appearance after shaking,[1]; Propylene glycol 10.00%,C
same,Appearance after standing,[1]; Propylene glycol 10.00%,D
same,Foaming property,[1]; Propylene glycol 10.00%,D
same,General judgment,[1]; Propylene glycol 10.00%,D
same,Appearance after shaking,[1]; Propylene glycol […],C
same,Appearance after standing,[1]; Propylene glycol […],D
same,Foaming property,[1]; Propylene glycol […],D
same,General judgment,[1]; Propylene glycol […],D
same,Appearance after shaking,[1]; Sodium L-glutamate 30 mM,B+
same,Appearance after standing,[1]; Sodium L-glutamate 30 mM,B+
same,Foaming property,[1]; Sodium L-glutamate 30 mM,B+
same,General judgment,[1]; Sodium L-glutamate 30 mM,B+
same,Appearance after shaking,[1]; Sodium L-glutamate 60 mM,A
same,Appearance after standing,[1]; Sodium L-glutamate 60 mM,A
same,Defoaming time,[1]; Sodium L-glutamate 60 mM,A (In 20 minutes)
same,Foaming property,[1]; Sodium L-glutamate 60 mM,B+
same,General judgment,[1]; Sodium L-glutamate 60 mM,A
same,Appearance after shaking,[1]; Sodium chloride 25 mM,D
same,Appearance after standing,[1]; Sodium chloride 25 mM,D
same,Foaming property,[1]; Sodium chloride 25 mM,B
same,General judgment,[1]; Sodium chloride 25 mM,D
same,Appearance after shaking,[1]; Sodium chloride 50 mM,B
same,Appearance after standing,[1]; Sodium chloride 50 mM,B
same,Foaming property,[1]; Sodium chloride 50 mM,A
same,General judgment,[1]; Sodium chloride 50 mM,C
same,Appearance after shaking,[1]; Sodium chloride 75 mM,A
same,Appearance after standing,[1]; Sodium chloride 75 mM,A
same,Defoaming time,[1]; Sodium chloride 75 mM,A (In 20 minutes)
same,Foaming property,[1]; Sodium chloride 75 mM,B+
same,General judgment,[1]; Sodium chloride 75 mM,A
same,Appearance after shaking,[1]; Sodium chloride 100 mM,A
same,Appearance after standing,[1]; Sodium chloride 100 mM,A
same,Defoaming time,[1]; Sodium chloride 100 mM,A (In 20 minutes)
same,Foaming property,[1]; Sodium chloride 100 mM,B
same,General judgment,[1]; Sodium chloride 100 mM,A
same,Defoaming time,[2]; Chlorobutanol 0.50%,C
same,Defoaming time,[2]; Chlorobutanol […],C
same,Defoaming time,[2]; Ethanol 1.00%,C
same,Defoaming time,[2]; Glycine 100 mM,C
same,Defoaming time,[2]; Meglumine 25 mM,C
same,Defoaming time,[2]; Methane sulfonic acid 15 mM,C
same,Defoaming time,[2]; Propylene glycol 1.00%,C
same,Defoaming time,[2]; Sodium L-glutamate 30 mM,C
same,Defoaming time,[2]; Sodium chloride 50 mM,C
